Measured values from US6372446B1, “Method of selectively determining a fungal biomass” (Mycometer ApS, priority 1997, dated 2002).

How the values were obtained:
Test in all cases: Screening of fungi for enzyme activity with 4-methylumbelliferone-labelled substrates
Type in all cases: cell-based
[1] = tested on: Sodaria fimicola (AAS 17); conditions: substrate 10 μM, 25° C., pH 5; for Enzyme activity: amount of released 4-methylumbelliferone: mineral medium; for Enzyme activity: amount of released 4-methylumbelliferone during 5 hours of incubation: vegetable juice medium
[2] = tested on: Penicillium commune (IBT 13713); conditions: substrate 10 μM, 25° C., pH 5; for Enzyme activity: amount of released 4-methylumbelliferone: mineral medium; for Enzyme activity: amount of released 4-methylumbelliferone during 5 hours of incubation: vegetable juice medium
[3] = tested on: Ascobolus crenulatus (AAS 1); conditions: substrate 10 μM, 25° C., pH 5; for Enzyme activity: amount of released 4-methylumbelliferone: mineral medium; for Enzyme activity: amount of released 4-methylumbelliferone during 5 hours of incubation: vegetable juice medium
[4] = tested on: Aureobasidium pullulans (QM 3092); conditions: substrate 10 μM, 25° C., pH 5; for Enzyme activity: amount of released 4-methylumbelliferone during 5 hours of incubation: Aureobasidium pulluians (QM 3092), vegetable juice medium; for Enzyme activity: amount of released 4-methylumbelliferone: Aureobasidium pullulans (QM 3092), mineral medium
[5] = tested on: Schizophyllum commune (AGM 25); conditions: substrate 10 μM, 25° C., pH 5; for Enzyme activity: amount of released 4-methylumbelliferone: mineral medium; for Enzyme activity: amount of released 4-methylumbelliferone during 5 hours of incubation: vegetable juice medium
[6] = tested on: Cladosporium herbarum (AGM 8); conditions: substrate 10 μM, 25° C., pH 5; for Enzyme activity: amount of released 4-methylumbelliferone: mineral medium; for Enzyme activity: amount of released 4-methylumbelliferone during 5 hours of incubation: vegetable juice medium
[7] = tested on: Rhizomucor pusillus (AAS 300); conditions: substrate 10 μM, 25° C., pH 5; for Enzyme activity: amount of released 4-methylumbelliferone: mineral medium; for Enzyme activity: amount of released 4-methylumbelliferone during 5 hours of incubation: vegetable juice medium
Eurotium sp. (AAS 36) = conditions: substrate 10 μM, 25° C., pH 5; for Enzyme activity: amount of released 4-methylumbelliferone: mineral medium; for Enzyme activity: amount of released 4-methylumbelliferone during 5 hours of incubation: vegetable juice medium
[8] = tested on: Aspergillus versicolor (IBT 13738); conditions: substrate 10 μM, 25° C., pH 5; for Enzyme activity: amount of released 4-methylumbelliferone: mineral medium; for Enzyme activity: amount of released 4-methylumbelliferone during 5 hours of incubation: vegetable juice medium
[9] = tested on: Penicillium solitum (IBT 13771); conditions: substrate 10 μM, 25° C., pH 5; for Enzyme activity: amount of released 4-methylumbelliferone: mineral medium; for Enzyme activity: amount of released 4-methylumbelliferone during 5 hours of incubation: vegetable juice medium
[10] = tested on: Trametes versicolor (AGM 24); conditions: substrate 10 μM, 25° C., pH 5; for Enzyme activity: amount of released 4-methylumbelliferone: mineral medium; for Enzyme activity: amount of released 4-methylumbelliferone during 5 hours of incubation: vegetable juice medium
[11] = tested on: Mucor racemosus (AAS 310); conditions: substrate 10 μM, 25° C., pH 5; for Enzyme activity: amount of released 4-methylumbelliferone: mineral medium; for Enzyme activity: amount of released 4-methylumbelliferone during 5 hours of incubation: vegetable juice medium
[12] = tested on: Paecilomyces farinosus (AGM 5); conditions: substrate 10 μM, 25° C., pH 5; for Enzyme activity: amount of released 4-methylumbelliferone: mineral medium; for Enzyme activity: amount of released 4-methylumbelliferone during 5 hours of incubation: vegetable juice medium
[13] = tested on: Aspergillus oryzae (AGM 11); conditions: substrate 10 μM, 25° C., pH 5; for Enzyme activity: amount of released 4-methylumbelliferone: mineral medium; for Enzyme activity: amount of released 4-methylumbelliferone during 5 hours of incubation: vegetable juice medium

SMILES	Enzyme activity: amount of released 4-methylumbelliferone [1] [µmol]	Enzyme activity: amount of released 4-methylumbelliferone during 5 hours of incubation [1] [µmol]	Enzyme activity: amount of released 4-methylumbelliferone [2] [µmol]	Enzyme activity: amount of released 4-methylumbelliferone during 5 hours of incubation [2] [µmol]	Enzyme activity: amount of released 4-methylumbelliferone [3] [µmol]	Enzyme activity: amount of released 4-methylumbelliferone during 5 hours of incubation [3] [µmol]	Enzyme activity: amount of released 4-methylumbelliferone during 5 hours of incubation [4] [µmol]	Enzyme activity: amount of released 4-methylumbelliferone [4]	Enzyme activity: amount of released 4-methylumbelliferone [5]	Enzyme activity: amount of released 4-methylumbelliferone during 5 hours of incubation [5] [µmol]	Enzyme activity: amount of released 4-methylumbelliferone [6] [µmol]	Enzyme activity: amount of released 4-methylumbelliferone during 5 hours of incubation [6] [µmol]	Enzyme activity: amount of released 4-methylumbelliferone [7] [µmol]	Enzyme activity: amount of released 4-methylumbelliferone during 5 hours of incubation [7]	Enzyme activity: amount of released 4-methylumbelliferone (Eurotium sp. (AAS 36)) [µmol]	Enzyme activity: amount of released 4-methylumbelliferone during 5 hours of incubation (Eurotium sp. (AAS 36)) [µmol]	Enzyme activity: amount of released 4-methylumbelliferone [8] [µmol]	Enzyme activity: amount of released 4-methylumbelliferone during 5 hours of incubation [8] [µmol]	Enzyme activity: amount of released 4-methylumbelliferone [9] [µmol]	Enzyme activity: amount of released 4-methylumbelliferone during 5 hours of incubation [9] [µmol]	also measured
CC(=O)N[C@H]1[C@@H](Oc2ccc3c(C)cc(=O)oc3c2)O[C@H](CO)[C@@H](O)[C@@H]1O [substrate 2, 4-methylumbelliferyl N-acetyl-α-D-glucosaminide]	0	0	0	0	0	0	0	0 µmol	0 µmol	0	0	0	0	0 µmol	0	0	0	0	0	0	Enzyme activity: amount of released 4-methylumbelliferone [10]: 0 µmol; Enzyme activity: amount of released 4-methylumbelliferone during 5 hours of incubation [10]: 0 µmol; Enzyme activity: amount of released 4-methylumbelliferone [11]: 0 µmol; Enzyme activity: amount of released 4-methylumbelliferone during 5 hours of incubation [11]: 0 µmol; Enzyme activity: amount of released 4-methylumbelliferone [12]: 0 µmol; Enzyme activity: amount of released 4-methylumbelliferone during 5 hours of incubation [12]: 0 µmol; Enzyme activity: amount of released 4-methylumbelliferone [13]: 0 µmol; Enzyme activity: amount of released 4-methylumbelliferone during 5 hours of incubation [13]: 0 µmol
Cc1cc(=O)oc2cc(O[C@H]3O[C@H](C)[C@H](O)[C@H](O)[C@H]3O)ccc12 [substrate 10, 4-methylumbelliferyl α-D-fucoside]	0	0	0	0	0	0	0	* (0.4 ≦ * < 1)	0 µmol	0	0	0	0	*** (2 ≦ ***)	0	0	0	0	0	0	Enzyme activity: amount of released 4-methylumbelliferone [10]: 0 µmol; Enzyme activity: amount of released 4-methylumbelliferone during 5 hours of incubation [10]: 0 µmol; Enzyme activity: amount of released 4-methylumbelliferone [11]: 0 µmol; Enzyme activity: amount of released 4-methylumbelliferone during 5 hours of incubation [11]: ** (1 ≦ ** 2); Enzyme activity: amount of released 4-methylumbelliferone [12]: 0 µmol; Enzyme activity: amount of released 4-methylumbelliferone during 5 hours of incubation [12]: 0 µmol; Enzyme activity: amount of released 4-methylumbelliferone [13]: 0 µmol; Enzyme activity: amount of released 4-methylumbelliferone during 5 hours of incubation [13]: 0 µmol
CC(=O)N[C@H]1[C@H](Oc2ccc3c(C)cc(=O)oc3c2)O[C@H](COS(=O)(=O)O)[C@@H](O)[C@@H]1O [substrate 1, 4-methylumbelliferyl 7-6(sulfo-2-acetamido-2-deoxy-β-D-glucopyranoside)]	0	0	0	0	0	0	0	0 µmol	* (0.4 ≦ * < 1)	0	0	0	0	0 µmol	0	0	0	0	0	0	Enzyme activity: amount of released 4-methylumbelliferone [10]: 0 µmol; Enzyme activity: amount of released 4-methylumbelliferone during 5 hours of incubation [10]: 0 µmol; Enzyme activity: amount of released 4-methylumbelliferone [11]: * (0.4 ≦ * < 1); Enzyme activity: amount of released 4-methylumbelliferone during 5 hours of incubation [11]: * (0.4 ≦ * < 1); Enzyme activity: amount of released 4-methylumbelliferone [12]: 0 µmol; Enzyme activity: amount of released 4-methylumbelliferone during 5 hours of incubation [12]: 0 µmol; Enzyme activity: amount of released 4-methylumbelliferone [13]: 0 µmol; Enzyme activity: amount of released 4-methylumbelliferone during 5 hours of incubation [13]: 0 µmol
